# Experimental data published in patent US5607836A, “Methods of detecting compounds which bind to the P2U receptor” (The Curators of the University of Missouri, priority 1995, dated 1997).
# Tests used:
# murine P2U receptor [1] = molecular target: T1, murine P2U receptor (Mus musculus, UniProt P35383); experiment: cytoplasmic free calcium (fura-2) in K562 cells transfected with P2U receptor cDNA; type: cell-based; parameters: missing the first 6 nucleotides of the 5' untranslated region of the full length cDNA; expressed in transfected cells; host or cells: K562 human leukemia cells; conditions: for increase in [Ca^2+ ]i: K562 cells stably or transiently transfected with P2U receptor cDNA; for time of return of [Ca^2+ ]i to the basal level / time to maximal [Ca^2+ ]i after nucleotide addition: K562 stable or transient transfectants; for effect of depletion of extracellular Ca^2+ by EGTA on nucleotide-mediated increases in [Ca^2+ ]i: stable transfectants
# Excerpt: (§1) Stable and Transient Transfections. To generate stable transfectants expressing the P2U receptor, K562 cells were transfected by electroporation (F. Toneguzzo et al., Mol. Cell. Biol. 6, 703 (1986)) with the neomycin-resistance plasmid pP2R1. pP2R1 is pRc/CMV containing a ~2.4 kb HindIII-NotI fragment of the P2U receptor cDNA, missing the first 6 nucleotides of the 5' untranslated region of the full length cDNA. control cells were stably transfected with pRc/CMV. Cells were sedimented at 200×g for 5 min at room temperature, rinsed once with phosphate-buffered saline (10 mM NaH2 PO4, pH 7.4, 120 mM NaCl, 5 mM KCl), and resuspended in phosphate-buffered saline at a final concentration of 4×10^7 cells/ml. The cells were chilled on ice for 10 min and then transferred in 0.5 ml aliquots to prechilled electroporation cuvettes. DNA (40 μg of pP2R1 linearized with PvuI) was added to the cell suspension, the cells were subjected to a single electrical pulse (1 kV, 25 μF) and the cuvettes were placed on ice. After 10 min, growth medium was added and the cells were incubated at 37° C. Fresh growth medium supplemented with 0.7 mg/ml G418 was added 48 h […], and the cells were incubated for 2 weeks to select for stable transfectants expressing neomycin resistance. Clonal cell lines were then isolated by transferring single cells to individual wells of a 96-well culture plate: each well contained 0.2 ml of conditioned growth medium filtered from K562 stock cultures, 0.2 ml of fresh growth medium, and 0.4 mg/ml G418. The clonal cell lines were cultured for three to four weeks in growth medium containing 0.4 mg/ml G418 and assayed for P2U receptor, the results shown are from one representative clonal cell line.
# To generate transient transfectants, K562 cells were transfected as above with 40 μg unlinearized plasmid pCCM6×1 or pP2R (Lustig et al., supra 1993). Cells were incubated for 48 h at 37° C. in 100 mm culture dishes containing 12 ml of growth medium and assayed for P2U receptor activity.
# (§2) Cytoplasmic Free Calcium Measurements. Cells were sedimented at 200×g for 5 min at room temperature and washed once with 10 ml of Hepes-bufferedsaline (20 mM Hepes, pH 7.4, 120 mM NaCl, 5 mM KCl, 1 mM MgCl2, and 1 mM CaCl2). Washed cells were suspended in Hepes-buffered saline at 5×10^5 cells/ml, and stored (for up to 4 h) at 37° C. The concentration of cytoplasmic free calcium, [Ca^2+ ]i, was measured by dual-excitation spectrofluorometric analysis of cells loaded with fura-2, a fluorescent probe for calcium.
# [2] = molecular target: histidine-tagged P2U receptor (P2HIS) (Mus musculus, UniProt P35383); experiment: cytoplasmic free calcium in K562 cells stably expressing histidine-tagged P2U receptor (P2HIS); type: cell-based, murine
# Method: as §2
# Construction and Purification of the Histidine-tagged P2U Receptor (P2HIS). To produce P2HIS, 70 pmoles of the primers CGCACCATTGCCTTGGTAC (SEQ ID NO:3)(which contains a BstXI site) and […] (SEQ ID NO:4) (which contains an EcoRV site, stop codon, and the hexahistidine coding sequence) were incubated with 50 ng of pP2R, 20 nmoles of each dNTP, 1X reaction buffer (20 mM Tris-HCl, pH 8.2, 10 mM KCl, 6 mM (NH4)2 SO4, 1.5 mM MgCl2, and 0.1% Triton X-100), and H2 O to bring the reaction mixture to a 100 μl volume. […] The reaction mixture was overlayed with 50 μl of mineral oil and subjected to 30 PCR cycles (95° C. for 1.5 min, 55° C. for 1.5 min, and 72° C. for 2 min). The PCR product, a single 400 bp band, was subcloned into the unique BstXI-EcoRV restriction site of pP2R to generate pP2HIS. […]
# [3] = test system: 1321N1 human astrocytoma cells (uninfected or LSN-infected); experiment: intracellular calcium by fura-2 fluorescence in uninfected or LSN-infected 1321N1 control cells; type: cell-based; conditions: uninfected or LSN-infected controls
# Method: (§3) Heteroloqous Expression. A retroviral vector-containing plasmid, pLHP2USN, was constructed by insertion of the cloned CF/T43 cDNA into the EcoRI and XhoI sites of pLXSN (A. Miller and G. Rosman, Biotechniques 7, 980 (1989)). An amphotrophic packaging cell line, PA317, was used to produce the LHP2USN retroviral vector and a control vector containing Neor only (LSN). Clonal human astrocytoma cells 1321N1, UNC strain, generously provided by T. K. Harden (UNC, Chapel Hill, N.C.), were plated at 150,000 cells per 60-mm dish and infected with LHP2USN or LSN (2 hr, 4 ug/ml Polybrene) and after 48 hr selected with 600 ug/ml G418 (Life Technologies, Inc., Gaithersburg, Md., U.S.A.). To assay for receptor activity, intracellular calcium concentration was measured in confluent cells on coverslips by fura-2 fluorescence using microspectrofluorimetry as previously described (S. Mason et al., Br. J. Pharmacol. 103, 1649 (1991)). Measurement of cell inositol phosphate formation was as described by H. Brown et al., Mol. Pharmacol. 40, 648 (1991), in accordance with known techniques.
# A retrovirus expression system was employed to study the cloned CF/T43 HP2U cDNA in 1321N1 human astrocytoma cells. The effect of extracellular nuceotides on intracellular calcium, as measured by fura-2 fluorescence, was assessed in CF/T43 cells, uninfected 1321N1 cells, and 1321N1 cells infected with retroviral vector containing either the cloned HP2U or no insert (LSN).
# human P2U receptor = human P2U receptor (Homo sapiens, UniProt P41231); experiment: inositol phosphate formation in 1321N1 cells expressing LHP2USN; type: cell-based; conditions: 1321N1 cells expressing LHP2USN pretreated with apyrase
# Method: as §3
# To test this possibility more directly, we measured inositol phosphate formation. […] We hypothesized that during the lengthy labeling period 1321N1 cells released 5'-nucleotides into the medium in quantities sufficient to "self-activate" the receptor. […] Thus, it appears the cells are persistently stimulated by nucleotides in an autocrine fashion. The mode of release of nucleotides from the astrocytoma cells and the biological consequences of the persistent autocrine activation are unknown. To facilitate comparison with controls, the inositol phosphate studies were performed on cells pretreated with apyrase.
# murine P2U receptor [4] = molecular target: T1, murine P2U receptor; experiment: intracellular phosphatidylinositol 4,5-bisphosphate (PIP2) in K562 stable transfectants; type: cell-based; conditions: transient
# Excerpt: as §1, with “Clonal cell lines were then isolated by transferring single cells to individual wells of a 96-well culture plate: each well contained 0.2 ml of conditioned growth medium filtered from K562 stock cultures, 0.2 ml of fresh growth medium, and 0.4 mg/ml G418. The clonal cell lines were cultured for three to four weeks in growth medium containing 0.4 mg/ml G418 and assayed for P2U receptor, the results shown are from one representative clonal cell line.” left out
# T1 sequence (P35383 whole entry): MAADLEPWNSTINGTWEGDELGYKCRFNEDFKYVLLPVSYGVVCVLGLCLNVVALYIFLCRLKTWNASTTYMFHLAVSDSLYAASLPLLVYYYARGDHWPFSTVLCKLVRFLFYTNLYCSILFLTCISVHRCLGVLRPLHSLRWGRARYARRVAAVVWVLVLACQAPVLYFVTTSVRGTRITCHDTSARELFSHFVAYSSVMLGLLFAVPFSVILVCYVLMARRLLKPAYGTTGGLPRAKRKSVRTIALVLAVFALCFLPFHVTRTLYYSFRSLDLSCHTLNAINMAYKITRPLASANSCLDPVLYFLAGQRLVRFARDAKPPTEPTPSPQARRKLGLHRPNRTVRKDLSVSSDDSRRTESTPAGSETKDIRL
# Chain of histidine-tagged P2U receptor (P2HIS) (P35383 whole entry): as above
# Chain of human P2U receptor (P41231 whole entry): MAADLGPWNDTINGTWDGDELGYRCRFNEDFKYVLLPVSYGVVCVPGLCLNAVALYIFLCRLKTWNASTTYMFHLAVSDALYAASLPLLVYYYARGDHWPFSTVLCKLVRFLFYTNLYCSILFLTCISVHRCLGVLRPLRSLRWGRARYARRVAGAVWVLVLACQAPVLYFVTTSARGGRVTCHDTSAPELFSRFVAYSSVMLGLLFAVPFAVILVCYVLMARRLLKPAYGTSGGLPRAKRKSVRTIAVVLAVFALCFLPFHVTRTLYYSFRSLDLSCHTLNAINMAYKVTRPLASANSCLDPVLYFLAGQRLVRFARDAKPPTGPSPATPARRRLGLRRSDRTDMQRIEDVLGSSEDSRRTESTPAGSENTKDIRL
Structure (SMILES),EC50 (murine P2U receptor [1]) [nM],increase in [Ca^2+ ]i (murine P2U receptor [1]),time of return of [Ca^2+ ]i to the basal level (murine P2U receptor [1]) [min],time to maximal [Ca^2+ ]i after nucleotide addition (murine P2U receptor [1]) [s],effect of depletion of extracellular Ca^2+ by EGTA on nucleotide-mediated increases in [Ca^2+ ]i (murine P2U receptor [1]),[Ca^2+ ]i in K562 cells stably expressing P2HIS [2],[Ca^2+ ]i response of uninfected or LSN-infected 1321N1 cells [3],inositol phosphate accumulation (human P2U receptor),"reduction of intracellular levels of phosphatidylinositol 4,5-bisphosphate (PIP2) (murine P2U receptor [4])"
Nc1ncnc2c1ncn2[C@@H]1O[C@H](COP(=O)(O)OP(=O)(O)OP(=O)(O)O)[C@@H](O)[C@H]1O [ATP],~1400,two-fold increase,≤ 1,≤ 5,not affected,increase in [Ca^2+ ]i,the same result observed with UTP,increased inositol phosphate accumulation,approximately 10%
O=c1ccn([C@@H]2O[C@H](COP(=O)(O)OP(=O)(O)OP(=O)(O)O)[C@@H](O)[C@H]2O)c(=O)[nH]1 [UTP],~800,two-fold increase,≤ 1,≤ 5,not affected,increase in [Ca^2+ ]i,no effect,increased inositol phosphate accumulation,approximately 10%
